Measured values: PubChem BioAssay AID248 (DTP/NCI, 2004)
Where “and” joins values, the source holds several entries; their conditions need not be identical. Equal values may be shown once. Inconclusive results and toxic doses are left out. Cut-off read from the data, not from the text of the source: active = T/C of 150% or more; inactive = T/C below 125%.

System: L1210 leukemia ip in BDF1 mice, survival T/C
Experiment: NCI In Vivo Anticancer Drug Screen. Data for tumor model L1210 Leukemia (intraperitoneal) in B6D2F1 (BDF1) mice
Conditions: endpoint: mean survival time, higher = longer survival
How it was run: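 Tumor cells were implanted, animals were treated, and survival was followed. The result divides the treated measurement by the vehicle-control measurement.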

[1] = dose: 50.0 mg/kg/injection, schedule: Q01DX009 (ip), vehicle: saline
[2] = dose: 100.0 mg/kg/injection, schedule: Q01DX009 (ip), vehicle: saline
[3] = dose: 200.0 mg/kg/injection, schedule: Q01DX009 (ip), vehicle: saline
[4] = dose: 400.0 mg/kg/injection, schedule: Q01DX009 (ip), vehicle: saline
[5] = dose: 100.0 mg/kg/injection, schedule: Q04DX003 (ip), vehicle: saline with Tween-80
[6] = dose: 200.0 mg/kg/injection, schedule: Q04DX003 (ip), vehicle: saline with Tween-80
[7] = dose: 100.0 mg/kg/injection, schedule: Q01DX001 (ip), vehicle: saline with Tween-80
[8] = dose: 200.0 mg/kg/injection, schedule: Q01DX001 (ip), vehicle: saline with Tween-80
[9] = dose: 25.0 mg/kg/injection, schedule: Q04DX002 (ip), vehicle: Klucel (hydroxypropylcellulose) (HPC)
[10] = dose: 50.0 mg/kg/injection, schedule: Q04DX002 (ip), vehicle: Klucel (hydroxypropylcellulose) (HPC)
[11] = dose: 100.0 mg/kg/injection, schedule: Q04DX002 (ip), vehicle: Klucel (hydroxypropylcellulose) (HPC)
[12] = dose: 100.0 mg/kg/injection, schedule: Q01DX009 (ip), vehicle: Klucel (hydroxypropylcellulose) (HPC)
[13] = dose: 200.0 mg/kg/injection, schedule: Q01DX009 (ip), vehicle: Klucel (hydroxypropylcellulose) (HPC)
[14] = dose: 100.0 mg/kg/injection, schedule: Q04DX003 (ip), vehicle: Klucel (hydroxypropylcellulose) (HPC)
[15] = dose: 200.0 mg/kg/injection, schedule: Q04DX003 (ip), vehicle: Klucel (hydroxypropylcellulose) (HPC)
[16] = dose: 400.0 mg/kg/injection, schedule: Q04DX003 (ip), vehicle: Klucel (hydroxypropylcellulose) (HPC)
[17] = dose: 400.0 mg/kg/injection, schedule: Q04DX003 (ip), vehicle: saline with Tween-80
[18] = dose: 100.0 mg/kg/injection, schedule: Q01DX001 (ip), vehicle: saline
[19] = dose: 200.0 mg/kg/injection, schedule: Q01DX001 (ip), vehicle: saline

Measured: T/C

CCc1cccc(CC)c1N=Cc1ccccc1O
inactive: dose: 100.0 mg/kg/injection, schedule: Q01DX009 (ip), vehicle: carboxymethylcellulose (CMC) 98 % of control and 102 % of control | dose: 100.0 mg/kg/injection, schedule: Q04DX002 (ip), vehicle: carboxymethylcellulose (CMC) 93 % of control and 101 % of control | dose: 100.0 mg/kg/injection, schedule: Q04DX003 (ip), vehicle: carboxymethylcellulose (CMC) 98 % of control | dose: 200.0 mg/kg/injection, schedule: Q01DX009 (ip), vehicle: carboxymethylcellulose (CMC) 93 % of control and 98 % of control | dose: 200.0 mg/kg/injection, schedule: Q04DX002 (ip), vehicle: carboxymethylcellulose (CMC) 96 % of control and 102 % of control | dose: 200.0 mg/kg/injection, schedule: Q04DX003 (ip), vehicle: carboxymethylcellulose (CMC) 102 % of control | dose: 400.0 mg/kg/injection, schedule: Q01DX009 (ip), vehicle: carboxymethylcellulose (CMC) 95 % of control | dose: 400.0 mg/kg/injection, schedule: Q04DX002 (ip), vehicle: carboxymethylcellulose (CMC) 93 % of control and 96 % of control | dose: 400.0 mg/kg/injection, schedule: Q04DX003 (ip), vehicle: carboxymethylcellulose (CMC) 104 % of control

OC1OCCOC1O (stereo not drawn)
inactive: [1] 100 % of control | [2] 100 % of control | [3] 109 % of control | [4] 103 % of control

CCOC(=O)CCSC
inactive: dose: 50.0 mg/kg/injection, schedule: Q01DX009 (ip), vehicle: saline with Tween-80 100 % of control | dose: 100.0 mg/kg/injection, schedule: Q01DX009 (ip), vehicle: saline with Tween-80 97 % of control | [5] 93 % of control | dose: 200.0 mg/kg/injection, schedule: Q01DX009 (ip), vehicle: saline with Tween-80 92 % of control | [6] 96 % of control

Fc1c(F)c(F)c([Si](c2c(F)c(F)c(F)c(F)c2F)(c2c(F)c(F)c(F)c(F)c2F)c2c(F)c(F)c(F)c(F)c2F)c(F)c1F
inactive: [7] 96 % of control | [8] 91 % of control | dose: 400.0 mg/kg/injection, schedule: Q01DX001 (ip), vehicle: saline with Tween-80 86 % of control

CCN(CC#CCOc1ccc(Cl)cc1)c1ccccc1
inactive: [9] 99 % of control | [10] 93 % of control | [11] 93 % of control

CN(C)C1CCC(/C=C(\C#N)C2CCC([N+](=O)[O-])CC2)CC1 (stereo not drawn)
inactive: [9] 109 % of control | dose: 50.0 mg/kg/injection, schedule: Q01DX009 (ip), vehicle: Klucel (hydroxypropylcellulose) (HPC) 106 % of control | [10] 95 % of control | [12] 106 % of control | [11] 95 % of control | [13] 102 % of control | dose: 200.0 mg/kg/injection, schedule: Q04DX002 (ip), vehicle: Klucel (hydroxypropylcellulose) (HPC) 95 % of control and 100 % of control | dose: 400.0 mg/kg/injection, schedule: Q04DX002 (ip), vehicle: Klucel (hydroxypropylcellulose) (HPC) 103 % of control

CCCCCS(=O)(=O)N(CC)CC
inactive: dose: 100.0 mg/kg/injection, schedule: Q04DX002 (ip), vehicle: saline with Tween-80 96 % of control | dose: 200.0 mg/kg/injection, schedule: Q04DX002 (ip), vehicle: saline with Tween-80 96 % of control | dose: 400.0 mg/kg/injection, schedule: Q04DX002 (ip), vehicle: saline with Tween-80 89 % of control

CC1=CCC(O)(C(C)C)CC1 (stereo not drawn)
inactive: [2] 93 % of control | [3] 93 % of control | [4] 95 % of control

Nc1nc2ccccc2c(=O)[nH]1
inactive: dose: 25.0 mg/kg/injection, schedule: Q04DX003 (ip), vehicle: saline with Tween-80 110 % of control | dose: 50.0 mg/kg/injection, schedule: Q04DX003 (ip), vehicle: saline with Tween-80 96 % of control | [5] 102 % of control and 106 % of control

COC(=O)c1ccc(OS(=O)(=O)c2cccc([N+](=O)[O-])c2)cc1
inactive: [12] 96 % of control | [14] 90 % of control | [13] 98 % of control | [15] 95 % of control | dose: 400.0 mg/kg/injection, schedule: Q01DX009 (ip), vehicle: Klucel (hydroxypropylcellulose) (HPC) 118 % of control | [16] 90 % of control

CC(=O)Nc1ccc(/C=C(\C#N)c2ccc(C)cc2)cc1
inactive: [5] 87 % of control | [6] 90 % of control | [17] 101 % of control

CC(=O)NC(CC(C)C)C(=O)O (stereo not drawn)
inactive: dose: 25.0 mg/kg/injection, schedule: Q04DX002 (ip), vehicle: saline 96 % of control | dose: 50.0 mg/kg/injection, schedule: Q04DX002 (ip), vehicle: saline 101 % of control | dose: 100.0 mg/kg/injection, schedule: Q04DX002 (ip), vehicle: saline 101 % of control | dose: 200.0 mg/kg/injection, schedule: Q04DX002 (ip), vehicle: saline 90 % of control | dose: 400.0 mg/kg/injection, schedule: Q04DX002 (ip), vehicle: saline 108 % of control

CCC(/C=N\NC(=O)CCCC(=O)N/N=C/C(CC)CC)CC
inactive: dose: 50.0 mg/kg/injection, schedule: Q01DX001 (ip), vehicle: carboxymethylcellulose (CMC) 90 % of control | dose: 100.0 mg/kg/injection, schedule: Q01DX001 (ip), vehicle: carboxymethylcellulose (CMC) 90 % of control | dose: 400.0 mg/kg/injection, schedule: Q01DX001 (ip), vehicle: carboxymethylcellulose (CMC) 90 % of control

S=C([S][Sb]([c]1ccccc1)[c]1ccccc1)N(c1ccccc1)c1ccccc1
inactive: dose: 5.0 mg/kg/injection, schedule: Q01DX001 (ip), vehicle: other 102 % of control | dose: 10.0 mg/kg/injection, schedule: Q01DX001 (ip), vehicle: other 102 % of control | dose: 20.0 mg/kg/injection, schedule: Q01DX001 (ip), vehicle: other 98 % of control | dose: 40.0 mg/kg/injection, schedule: Q01DX001 (ip), vehicle: other 107 % of control

CCCCCCCCCCCCSCCOC(=O)C1C2CCC(O2)C1C(=O)O (stereo not drawn)
inactive: dose: 12.5 mg/kg/injection, schedule: Q04DX003 (ip), vehicle: Klucel (hydroxypropylcellulose) (HPC) 96 % of control | dose: 25.0 mg/kg/injection, schedule: Q04DX003 (ip), vehicle: Klucel (hydroxypropylcellulose) (HPC) 100 % of control | dose: 50.0 mg/kg/injection, schedule: Q04DX003 (ip), vehicle: Klucel (hydroxypropylcellulose) (HPC) 90 % of control

CCCCCCCCCC/C=C/c1c(C)[nH]c2ccccc2c1=O
inactive: dose: 100.0 mg/kg/injection, schedule: Q01DX009 (ip), vehicle: alcohol 98 % of control | dose: 100.0 mg/kg/injection, schedule: Q04DX003 (ip), vehicle: alcohol 93 % of control | dose: 200.0 mg/kg/injection, schedule: Q04DX003 (ip), vehicle: alcohol 100 % of control | dose: 400.0 mg/kg/injection, schedule: Q04DX003 (ip), vehicle: alcohol 88 % of control

C=C(C)COC(=O)Nc1cccc(O)c1
inactive: dose: 100.0 mg/kg/injection, schedule: Q01DX001 (ip), vehicle: saline + alcohol 96 % of control | dose: 200.0 mg/kg/injection, schedule: Q01DX001 (ip), vehicle: saline + alcohol 96 % of control

CCCCCCCCCCCCCCCC=C(C)C
inactive: [7] 101 % of control | [8] 103 % of control

O=C(c1ccc([N+](=O)[O-])cc1)N1C2CCCCCCC21 (stereo not drawn)
inactive: [1] 121 % of control | [18] 94 % of control | [2] 113 % of control | [19] 89 % of control | [3] 110 % of control

CCOC(=O)c1ccccc1N(O)C(=O)Nc1ccc(C)cc1
inactive: [5] 97 % of control | [6] 105 % of control | [17] 109 % of control

CC(C)=C(c1ccc(Cl)cc1)c1c(N)ncnc1N
inactive: [5] 100 % of control | [6] 100 % of control | [17] 100 % of control

C=C(C)C1CC=C(/C=N/O)CC1 (stereo not drawn)
inactive: [18] 104 % of control | dose: 100.0 mg/kg/injection, schedule: Q01DX009 (ip), vehicle: saline sonified 104 % of control | [14] 96 % of control | [19] 101 % of control | dose: 200.0 mg/kg/injection, schedule: Q01DX009 (ip), vehicle: saline sonified 97 % of control | [15] 98 % of control | dose: 400.0 mg/kg/injection, schedule: Q01DX001 (ip), vehicle: saline 95 % of control | dose: 400.0 mg/kg/injection, schedule: Q01DX009 (ip), vehicle: saline sonified 97 % of control | [16] 98 % of control
